Test results: ChEMBL document CHEMBL1201862, “PubChem BioAssay data set” (2004)
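Cells were grown in 96-well plates and exposed to each compound for 48 hours at five concentrations; endpoints were interpolated linearly between bracketing concentrations, or set to the highest concentration if not reached. GI50 is the concentration that inhibits growth by half.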 The source made the active and inactive calls. Rule as the data show it: active = GI50 up to about 1.1 µM and inactive = higher.

Key:
Test in all cases: DTP human tumour cell line panel, 48 h
[1] = test system: SF-539
[2] = test system: COLO 205
[3] = test system: NCI-H522
[4] = test system: UO-31
[5] = test system: HCC 2998
[6] = test system: OVCAR-8
[7] = test system: XF498
[8] = test system: DLD-1
[9] = test system: RXF 393
[10] = test system: CAKI-1
[11] = test system: SN12C
[12] = test system: A549
[13] = test system: HCT-116
[14] = test system: SF-268
[15] = test system: DMS-114
[16] = test system: KM12
[17] = test system: Malme-3M
[18] = test system: KM-20L2
[19] = test system: NCI-H226
[20] = test system: SNB-75
[21] = test system: LOX IMVI
[22] = test system: SNB-19
[23] = test system: MOLT-4
[24] = test system: SR
[25] = test system: HOP-62
[26] = test system: CCRF-CEM
[27] = test system: ACHN
[28] = test system: U-251
[29] = test system: OVCAR-5
[30] = test system: HT-29
[31] = test system: UACC-257
[32] = test system: SK-MEL-5
[33] = test system: K562
[34] = test system: M14
[35] = test system: SK-OV-3
[36] = test system: OVCAR-3
[37] = test system: DMS-273
[38] = test system: HCT-15
[39] = test system: SK-MEL-2
[40] = test system: NCI-H460
[41] = test system: HL-60
[42] = test system: UACC-62
[43] = test system: HOP-92
[44] = test system: M19-MEL
[45] = test system: SK-MEL-28
[46] = test system: NCI-H23
[47] = test system: EKVX
[48] = test system: IGROV-1
[49] = test system: 786-0
[50] = test system: TK-10
[51] = test system: RPMI-8226
[52] = test system: SW-620
[53] = test system: LXFL 529
[54] = test system: SNB-78
[55] = test system: SF-295
[56] = test system: DU-145
[57] = test system: MDA-MB-231
[58] = test system: MDA-MB-435
[59] = test system: Hs-578T
[60] = test system: MDA-N
[61] = test system: OVCAR-4
[62] = test system: MCF7
[63] = test system: BT-549
[64] = test system: A498
[65] = test system: NCI/ADR-RES
[66] = test system: PC-3

Cn1c(=O)c2c(nc(C[N+]3([O-])CCOCC3)n2C)n(C)c1=O
GI50 [1]: > 100 µM (inactive)
GI50 [2]: > 100 µM (inactive)
GI50 [3]: > 100 µM (inactive)
GI50 [4]: > 100 µM (inactive)
GI50 [5]: > 100 µM (inactive)
GI50 [6]: > 100 µM (inactive)
GI50 [7]: > 100 µM (inactive)
GI50 [8]: > 100 µM (inactive)
GI50 [9]: > 100 µM (inactive)
GI50 [10]: 36.9 µM (inactive)
GI50 [11]: > 100 µM (inactive)
GI50 [12]: > 100 µM (inactive)
GI50 [13]: 7.98 µM (inactive)
GI50 [14]: > 100 µM (inactive)
GI50 [15]: 0.45 µM (active)
GI50 [16]: > 100 µM (inactive)
GI50 [17]: > 100 µM (inactive)
GI50 [18]: > 100 µM (inactive)
GI50 [19]: > 100 µM (inactive)
GI50 [20]: 63.5 µM (inactive)
GI50 [21]: > 100 µM (inactive)
GI50 [22]: > 100 µM (inactive)
GI50 [23]: > 100 µM (inactive)
GI50 [24]: > 100 µM (inactive)
GI50 [25]: > 100 µM (inactive)
GI50 [26]: > 100 µM (inactive)
GI50 [27]: > 100 µM (inactive)
GI50 [28]: > 100 µM (inactive)
GI50 [29]: > 100 µM (inactive)
GI50 [30]: > 100 µM (inactive)
GI50 [31]: > 100 µM (inactive)
GI50 [32]: > 100 µM (inactive)
GI50 [33]: > 100 µM (inactive)
GI50 [34]: > 100 µM (inactive)
GI50 [35]: > 100 µM (inactive)
GI50 [36]: > 100 µM (inactive)
GI50 [37]: > 100 µM (inactive)
GI50 [38]: > 100 µM
GI50 [39]: > 100 µM (inactive)
GI50 [40]: > 100 µM (inactive)
GI50 [41]: > 100 µM (inactive)
GI50 [42]: > 100 µM (inactive)
GI50 [43]: > 100 µM (inactive)
GI50 [44]: > 100 µM (inactive)
GI50 [45]: > 100 µM (inactive)
GI50 [46]: > 100 µM (inactive)
GI50 [47]: > 100 µM (inactive)
GI50 [48]: > 100 µM (inactive)
GI50 [49]: > 100 µM (inactive)
GI50 [50]: > 100 µM (inactive)
GI50 [51]: > 100 µM (inactive)
GI50 [52]: > 100 µM (inactive)
GI50 [53]: > 100 µM (inactive)

COC(=O)c1cc(Cl)ccc1NC(=O)C1CCCCC1
GI50 [1]: > 100 µM (inactive)
GI50 [2]: > 100 µM (inactive)
GI50 [4]: 17.6 µM (inactive)
GI50 [5]: > 100 µM (inactive)
GI50 [6]: > 100 µM (inactive)
GI50 [9]: 33.1 µM (inactive)
GI50 [11]: 74.6 µM (inactive)
GI50 [12]: > 100 µM (inactive)
GI50 [13]: > 100 µM (inactive)
GI50 [14]: 48.1 µM (inactive)
GI50 [15]: > 100 µM (inactive)
GI50 [16]: > 100 µM (inactive)
GI50 [17]: > 100 µM (inactive)
GI50 [18]: > 100 µM (inactive)
GI50 [19]: > 100 µM (inactive)
GI50 [22]: > 100 µM (inactive)
GI50 [23]: 23.2 µM (inactive)
GI50 [24]: > 100 µM (inactive)
GI50 [27]: > 100 µM (inactive)
GI50 [28]: > 100 µM (inactive)
GI50 [29]: > 100 µM (inactive)
GI50 [30]: > 100 µM (inactive)
GI50 [31]: > 100 µM (inactive)
GI50 [54]: > 100 µM (inactive)
GI50 [55]: > 100 µM (inactive)
GI50 [33]: > 100 µM (inactive)
GI50 [37]: > 100 µM (inactive)
GI50 [38]: > 100 µM
GI50 [39]: > 100 µM (inactive)
GI50 [43]: 22.8 µM (inactive)
GI50 [45]: > 100 µM (inactive)
GI50 [46]: > 100 µM (inactive)
GI50 [47]: > 100 µM (inactive)
GI50 [49]: > 100 µM (inactive)
GI50 [50]: 92.7 µM (inactive)
GI50 [51]: > 100 µM (inactive)
GI50 [52]: > 100 µM (inactive)
GI50 [53]: > 100 µM (inactive)

COc1ccc(CC(C#N)c2cc(OC)c(OC)c(OC)c2)cc1 (stereo unspecified)
GI50 [1]: 0.0436 µM (active)
GI50 [2]: 0.029 µM (active)
GI50 [56]: 0.0422 µM (active)
GI50 [57]: 0.0561 µM (active)
GI50 [3]: 0.0267 µM (active)
GI50 [4]: 0.442 µM (active)
GI50 [5]: < 0.0416 µM (active)
GI50 [6]: 0.135 µM (active)
GI50 [58]: < 0.01 µM (active)
GI50 [7]: 0.356 µM (active)
GI50 [8]: 0.11 µM (active)
GI50 [9]: 0.0575 µM (active)
GI50 [10]: 0.0455 µM (active)
GI50 [11]: 0.135 µM (active)
GI50 [12]: 0.0525 µM (active)
GI50 [13]: 0.0466 µM (active)
GI50 [14]: 0.204 µM (active)
GI50 [59]: 0.0286 µM (active)
GI50 [15]: 0.0418 µM (active)
GI50 [16]: 0.0194 µM (active)
GI50 [17]: 0.0361 µM (active)
GI50 [18]: 0.0541 µM (active)
GI50 [19]: 0.773 µM (active)
GI50 [20]: 0.0475 µM (active)
GI50 [21]: 0.0328 µM (active)
GI50 [22]: 0.0986 µM (active)
GI50 [60]: < 0.01 µM (active)
GI50 [23]: 0.121 µM (active)
GI50 [24]: 0.0206 µM (active)
GI50 [25]: 0.0869 µM (active)
GI50 [61]: 7.29 µM (inactive)
GI50 [26]: 0.0668 µM (active)
GI50 [27]: 0.796 µM (active)
GI50 [62]: < 0.016 µM (active)
GI50 [28]: 0.0568 µM (active)
GI50 [29]: 6.27 µM (inactive)
GI50 [30]: 0.029 µM (active)
GI50 [31]: 0.0356 µM (active)
GI50 [54]: 0.227 µM (active)
GI50 [55]: 0.0184 µM (active)
GI50 [63]: 11.9 µM (inactive)
GI50 [32]: 0.0266 µM (active)
GI50 [33]: 0.0248 µM (active)
GI50 [34]: 0.0472 µM (active)
GI50 [35]: 0.0474 µM (active)
GI50 [36]: 0.0279 µM (active)
GI50 [64]: 0.179 µM (active)
GI50 [37]: 0.0303 µM (active)
GI50 [38]: 0.0276 µM
GI50 [39]: 0.0775 µM (active)
GI50 [40]: 0.0409 µM (active)
GI50 [41]: 0.0258 µM (active)
GI50 [65]: 0.0185 µM (active)
GI50 [42]: 0.0275 µM (active)
GI50 [43]: 0.366 µM (active)
GI50 [44]: 0.0676 µM (active)
GI50 [45]: 0.0619 µM (active)
GI50 [46]: 0.109 µM (active)
GI50 [47]: 1.56 µM (inactive)
GI50 [66]: 0.014 µM (active)
GI50 [48]: 0.0809 µM (active)
GI50 [49]: 0.125 µM (active)
GI50 [51]: 0.0741 µM (active)
GI50 [52]: 0.0236 µM (active)
GI50 [53]: 0.171 µM (active)
